The record followed here is patent US9644194B2, “Cold-adapted protease derived from Pseudoalteromonas arctica PAMC 21717 and uses thereof” (KOREA INSTITUTE OF OCEAN SCIENCE & TECHNOLOGY, priority 2014, dated 2017).

Data set [1] has as its system W-Pro21717. As to the kind of experiment: Activity and stability of W-Pro21717 in the presence of metal ions and surfactants. The format is biochemical, Pseudoalteromonas arctica PAMC 21717. The following applies: 1 mM, on ice for 1 hour, FIG. 3; for influence on the activity of W-Pro21717: result in words. The method, then:
In order to analyze the influence of metal ions and detergents, W-[…] was allowed to react with a standard buffer containing 1 mM BaCl2, CuSO4, MgSO4, CaCl2, ZnSO4, FePO4, KCl, NaCl, […], sodium linear alkylbenzene sulfonate (LAS) or SDS on ice for 1 hour. In addition, the compatibility of W-[…] with a commercial detergent (LG Household & Health Care, Korea; containing subtilisin Carlsberg) was analyzed using skim milk at temperatures of 10° C. and 30° C.

In data set [2] the test system is W-Pro21717. As to the kind of experiment: Effect of protease inhibitors on W-Pro21717 activity. The format is biochemical, Pseudoalteromonas arctica PAMC 21717. The following applies: result in words. The method, then:
(§1) The reaction solution was centrifuged, and then filtered through a filter having a pore size of 0.45 μm, and the filtrate was mixed and reacted with Folin & Ciocalteu's phenol solution and 500 mM sodium carbonate solution at 37° C. for 30 minutes. Next, the enzymatic activity of the reaction product was measured at 660 nm based on an L-tyrosine standard curve, and an amino acid production of 1 nmole/min/mg at 25° C. was defined as the activity of 1 unit of protease.
The kind of W-Pro21717 was analyzed by reactions with various protease inhibitors.

The nature of data set [3]: Substrate specificity of W-Pro21717 with synthetic peptides. The conditions noted are these: 25° C., 10 minutes, 410 nm. It counts as biochemical. The method, then: The substrate specificity of W-Pro21717 was analyzed using 5 mM of each of the following 7 different synthetic peptides: N-succinyl-Ala-Ala-Val-p-nitroanilide (AAV), N-succinyl-Ala-Ala-Pro-Leu-p-nitroanilide (AAPL), N-succinyl-Ala-Ala-Ala-p-nitroanilide (AAA), N-succinyl-Gly-Gly-Phe-p-nitroanilide (GGF), N-succinyl-Thr-Leu-Val-p-nitroanilide (TLV), N-succinyl-Ala-Ala-Pro-Phe-p-nitroanilide (AAPF), and N-succinyl-Ala-Ala-Val-Ala-p-nitroanilide (AAVA). W-Pro21717 was allowed to react with a standard buffer containing 0.83 mM substrate at 25° C. for 10 minutes, and then the relative activity thereof was measured at 410 nm.

Data set [4] deals with azocasein. The experiment in a line: Activity and stability of R-Pro21717 with temperature and pH. The format is biochemical. How it is done:
In order to determine a temperature optimal for the activity of the protease, R-Pro21717 was allowed to react at varying temperatures of 0˜70° C., and then analyzed. The stability of R-Pro21717 against temperature was analyzed by allowing R-Pro21717 at varying temperatures of 0˜70° C. for 1 hour, and then allowing R-Pro21717 to react a 0.65% azocasein-containing standard buffer at 30° C. for 30 minutes. As a control enzyme, Carlsberg subtilisin was used.
In order to determine a pH optimal for the activity of the protease, R-Pro21717-containing buffers having varying pHs were allowed to react at 30° C., and then analyzed. The stability of R-Pro21717 against pH was analyzed by allowing R-Pro21717-containing buffers having varying pHs to react on ice for 1 hour, and then reacting R-Pro21717 in 0.65% azocasein-containing standard buffer at 30° C. for 30 minutes. Carlsberg subtilisin was used as a control enzyme and analyzed at a reaction temperature of 40° C.

In data set [5] the test system is azocasein. As to the kind of experiment: Activity and stability of W-Pro21717 with temperature and pH. The format is biochemical. How it is done:
as §1, with “In order to measure the degradation activity of W-Pro21717, the cultured PAMC 21717 cells were centrifuged at 4° C. at 12,000×g for 30 minutes, and the supernatant was mixed with 50 mM sodium phosphate buffer (pH 7.6) containing 0.65% azocasein substrate, and was allowed to at 25° C. for 1 hour, and then additionally allowed to react at 37° C. for 1 hour after adding 110 mM trichloroacetic acid thereto. The” for “The”
A temperature optimal for the activity of W-Pro21717 was analyzed in the temperature range of 0 to 60° C., and the optimum pH was analyzed by 1-hour reactions in 50 mM sodium acetate (pH 2.0-6.0), 50 mM potassium phosphate (pH 7.0-10.0) and 50 mM sodium tetraborate (pH 10.0). As a control, 3 μg of the commercial protease Carlsberg subtilisin was used.

Turning to `[Ba+2].[Cl-].[Cl-]` [Ba^2+, BaCl2], in the data set on W-Pro21717 [1], the “influence on the activity of W-Pro21717” value is “did not influence”.
Still for that read-out and setting: as for `O=S(=O)([O-])[O-].[Mg+2]` [Mg^2+, MgSO4], the entry is “did not influence”.
Take `O=S(=O)([O-])[O-].[Cu+2]` [CuSO4]: the “increase of the activity of W-Pro21717” value in the data set with W-Pro21717 [1] was “about 60%”.
In the case of `[Cl][Hg][Cl]` [HgCl2], in the data set with W-Pro21717 [2], the “effect of inhibitor on the activity of W-Pro21717” value is reported as “inhibited”.
Regarding `[Cl-].[Na+]` [Na^2+, NaCl], the “influence on the activity of W-Pro21717” value in the data set on W-Pro21717 [1] was “did not influence”.
`O=S(=O)([O-])[O-].[Zn+2]` [Zn^2+, ZnSO4]: the “influence on the activity of W-Pro21717” value in the data set on W-Pro21717 [1] was “did not influence”.
As for `O=C(O)CN(CCN(CC(=O)O)CC(=O)O)CC(=O)O` [EDTA], the “effect of inhibitor on the activity of W-Pro21717” value with W-Pro21717 [2] was “slightly inhibited”.
The same measure, in the same setting: as for `O=S(=O)(F)Cc1ccccc1` [PMSF], the entry is “inhibited”.
For `[Ca+2].[Cl-].[Cl-]` [Ca^2+, CaCl2], the “influence on the activity of W-Pro21717” value in the data set with W-Pro21717 [1] is “did not influence”.
As to `[Fe+2]` [Fe^2+, FePO4], the “influence on the activity of W-Pro21717” value with W-Pro21717 [1] is reported as “did not influence”.
In the case of `[Cl-].[K+]` [K^+, KCl], in the data set with W-Pro21717 [1], the “influence on the activity of W-Pro21717” value is listed as “did not influence”.

B1: Subtilisin Carlsberg: commercial protease used as control enzyme (protein, UniProt P00780 106-379, looked up)
Subtilisin Carlsberg: AQTVPYGIPLIKADKVQAQGFKGANVKVAVLDTGIQASHPDLNVVGGASFVAGEAYNTDGNGHGTHVAGTVAALDNTTGVLGVAPSVSLYAVKVLNSSGSGSYSGIVSGIEWATTNGMDVINMSLGGASGSTAMKQAVDNAYAKGVVVVAAAGNSGSSGNTNTIGYPAKYDSVIAVGAVDSNSNRASFSSVGAELEVMAPGAGVYSTYPTNTYATLNGTSMASPHVAGAAALILSKHPNLSASQVRNRLSSTATYLGSSFYYGKGLINVEAAAQ
As for B1, the “Relative activity (%)” value in data set [3] (substrate AAPF) is recorded as 100%; in data set [3] (substrate GGF), 0%. Moreover, the “temperature at which stability / enzymatic activity decreases” value with azocasein [4] (1 hour at temperature, then azocasein 30° C. 30 minutes, FIG. 9B) is at least 50 °C. The “pH of highest activity” value in the data set on azocasein [4] (FIG. 9C) is “same results as those of R-Pro21717”. Further, in the data set with azocasein [4] (on ice for 1 hour, FIG. 9D), the “pH optimal for the stability” value is given as “same results as those of R-Pro21717”. For the same molecule, in the data set with azocasein [4] (printed 'at or'), the “proteolytic activity at low temperature relative to the highest activity” value was “did not show proteolytic activity”. Besides, the “temperature optimal for the activity” value was determined as 60 °C in the data set on azocasein [4] (tested 0˜70° C., FIG. 9A) and 60 °C in the data set with azocasein [5] (tested 0 to 60° C., FIG. 2A). Moreover, the “decrease in activity after a reaction at 40° C. for 1 hour” value in the data set on azocasein [5] (thermal stability, FIG. 2B) was determined as 80%.
